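48-hour exposure; five concentrations; linearly interpolated endpoints. GI50 marks 50% less growth.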 Active and inactive are the calls of the source. Cut-off read from the data, not from the text of the source: active = GI50 up to about 1.1 µM and inactive = higher.

The results in this text go back to ChEMBL document CHEMBL1201862, “PubChem BioAssay data set” (2004).

Among the test systems are ACHN; CAKI-1; CCRF-CEM; DU-145; Hs-578T; K562; MDA-N; Malme-3M; NCI-H226; NCI-H522; OVCAR-8; PC-3; SF-295; SF-539; SR; U-251; UACC-257; UACC-62; UO-31.
Experiment in all cases: NCI tumour cell line growth inhibition, 48 h

With `C=CCN(c1cc(OC)c2[nH]c(C(=O)O)c(C)c2c1[N+](=O)[O-])S(C)(=O)=O`, the GI50 with ACHN, in the test with CAKI-1, in the test with CCRF-CEM, in the test on DU-145, with Hs-578T and with K562 was > 100 µM (inactive) each time. The GI50 with MDA-N was > 100 µM (inactive); in the test with Malme-3M it was 9.79 µM (inactive); in the test on NCI-H226, > 100 µM (inactive); in the test on NCI-H522, 10 µM (inactive); with OVCAR-8, > 100 µM (inactive); in the test with PC-3, > 100 µM (inactive). Besides, the GI50 with SF-295, in the test on SF-539, with SR, in the test with U-251, with UACC-257 and in the test on UACC-62 was > 100 µM (inactive) throughout. Also, the GI50 in the test with UO-31 was > 100 µM (inactive).
For the compound `CCOC(NC(=O)CC)(C(F)(F)F)C(F)(F)F`, the GI50 with ACHN, in the test with CAKI-1, in the test with CCRF-CEM, in the test with DU-145, in the test with Hs-578T and in the test with K562 was > 100 µM (inactive) in each case. Further, the GI50 with MDA-N, in the test on Malme-3M, in the test on NCI-H226, in the test on NCI-H522, with OVCAR-8 and in the test with PC-3 was > 100 µM (inactive) throughout. Moreover, the GI50 with SF-295, in the test on SF-539, with SR, in the test with U-251, with UACC-257 and in the test on UACC-62 was > 100 µM (inactive) throughout. Also, in the test with UO-31, the GI50 was > 100 µM (inactive).
For the compound `CN1C(=O)c2ccccc2OC12C=Cc1c(ccc3ccccc13)O2` (stereo unspecified), the GI50 with ACHN was 3.1 µM (inactive); in the test with CAKI-1, 5.66 µM (inactive); in the test with CCRF-CEM, 3.83 µM (inactive); in the test with DU-145, 8 µM (inactive); with Hs-578T it was 3.85 µM (inactive); with K562, 2.82 µM (inactive). Further, the GI50 is 2.36 µM (inactive) in the test on MDA-N; 0.328 µM (active) in the test on Malme-3M; 5.94 µM (inactive) in the test with NCI-H226; 0.682 µM (active) with NCI-H522; 3.74 µM (inactive) in the test on OVCAR-8; 3.27 µM (inactive) in the test on PC-3. The GI50 with SF-295 was 2.45 µM (inactive); in the test on SF-539, 5.58 µM (inactive); in the test on SR, 3.48 µM (inactive); in the test with U-251, 3.42 µM (inactive); with UACC-257, 8.3 µM (inactive); in the test on UACC-62 it was 5.19 µM (inactive). Further, the GI50 with UO-31 was 6.52 µM (inactive).
With `C=CCOCn1cc(F)c(=O)[nH]c1=O`, the GI50 in the test with ACHN, in the test with CAKI-1, in the test with CCRF-CEM, in the test with DU-145, in the test with Hs-578T and in the test with K562 was > 100 µM (inactive) in each case. Besides, the GI50 with MDA-N, in the test on Malme-3M, in the test on NCI-H226, in the test on NCI-H522, with OVCAR-8 and in the test with PC-3 was > 100 µM (inactive) throughout. The GI50 in the test with SF-295, in the test on SF-539, in the test on SR, with UACC-257, with UACC-62 and in the test with UO-31 was > 100 µM (inactive) in each case.
Turning to `CCOC(=O)c1ccc(/N=c2/[nH]c3ccccc3s/c2=N/c2ccc(C(=O)OCC)cc2)cc1`, the GI50 in the test with ACHN was 29.1 µM (inactive); in the test on CAKI-1, > 100 µM (inactive); in the test with CCRF-CEM, > 100 µM (inactive); in the test on DU-145, > 100 µM (inactive); in the test on Hs-578T it was 39.5 µM (inactive); in the test with K562, > 100 µM (inactive). Besides, the GI50 was > 100 µM (inactive) with MDA-N; > 100 µM (inactive) in the test with Malme-3M; > 100 µM (inactive) in the test on NCI-H226; 5.24 µM (inactive) with NCI-H522; 86.7 µM (inactive) with OVCAR-8; > 100 µM (inactive) with PC-3. In addition, the GI50 with SF-295 is 83 µM (inactive); with SF-539, 72.8 µM (inactive); in the test with SR, > 100 µM (inactive); in the test on U-251 it was 39.4 µM (inactive); in the test on UACC-257, > 100 µM (inactive); with UACC-62, > 100 µM (inactive). Moreover, the GI50 in the test with UO-31 was > 100 µM (inactive).
Regarding `N#CC(/N=N/c1ccccc1)c1nc2ccccc2o1` (stereo unspecified), the GI50 in the test with ACHN was 19.3 µM (inactive); with CAKI-1 it was 31.9 µM (inactive); in the test with CCRF-CEM it was 34.6 µM (inactive); with DU-145, 26.5 µM (inactive); with Hs-578T, 22.3 µM (inactive); in the test on K562, 45.1 µM (inactive). Also, the GI50 in the test on MDA-N is 95.7 µM (inactive); with Malme-3M it was 55.8 µM (inactive); in the test on NCI-H226, 35.7 µM (inactive); in the test on NCI-H522, 27.2 µM (inactive); in the test on OVCAR-8 it was 24.5 µM (inactive); in the test with PC-3 it was 29.5 µM (inactive). The GI50 with SF-295 was 17.4 µM (inactive); with SF-539 it was 14.7 µM (inactive); in the test on SR, 36.8 µM (inactive); in the test with U-251, 22.4 µM (inactive); in the test with UACC-257, > 100 µM (inactive); in the test with UACC-62, 37.7 µM (inactive). Moreover, the GI50 with UO-31 is 56.6 µM (inactive).
In the case of `Oc1c(C(Nc2ccccn2)c2ccccc2)ccc2cccnc12` (stereo unspecified), the GI50 in the test with ACHN was 3.56 µM (inactive); in the test with CAKI-1, 4.09 µM (inactive); in the test on CCRF-CEM, 1.37 µM (inactive); with DU-145, 4.05 µM (inactive); with Hs-578T, 12.4 µM (inactive); with K562, 3.22 µM (inactive). Moreover, the GI50 with MDA-N is 5.7 µM (inactive); in the test with Malme-3M it was 1.46 µM (inactive); with NCI-H226, 2.59 µM (inactive); in the test on NCI-H522 it was 2.68 µM (inactive); in the test with OVCAR-8 it was 4.01 µM (inactive); with PC-3 it was 3.39 µM (inactive). The GI50 in the test on SF-295 was 3.55 µM (inactive); in the test with SF-539 it was 3.18 µM (inactive); in the test on SR it was 2.31 µM (inactive); in the test with U-251, 2.72 µM (inactive); in the test on UACC-257, 7.8 µM (inactive); with UACC-62 it was 4.33 µM (inactive). The GI50 in the test with UO-31 was 3.14 µM (inactive).
In the case of `CCOC(=O)c1c(N/C(S)=N/c2ccccc2)sc2c1CCOC2`, the GI50 in the test on ACHN was 97.3 µM (inactive); in the test on CAKI-1 it was 43.3 µM (inactive); in the test on CCRF-CEM, 63.7 µM (inactive); in the test with DU-145 it was 80.5 µM (inactive); with Hs-578T, 67.3 µM (inactive); in the test with K562 it was > 100 µM (inactive). For the same compound, the GI50 in the test with MDA-N was 50.1 µM (inactive); in the test on Malme-3M, 52.1 µM (inactive); with NCI-H226, > 100 µM (inactive); in the test with NCI-H522 it was 64.9 µM (inactive); in the test on OVCAR-8 it was > 100 µM (inactive); with PC-3, 61.2 µM (inactive). For the same compound, the GI50 with SF-295 is 46.8 µM (inactive); in the test on SF-539, > 100 µM (inactive); in the test with SR, 53.5 µM (inactive); with U-251 it was > 100 µM (inactive); in the test on UACC-257, 64 µM (inactive); in the test with UACC-62, 28.9 µM (inactive). In addition, in the test with UO-31, the GI50 is 45.9 µM (inactive).
Consider `CC1=C/C(=N\NC(N)=S)C(C(O)(C(F)(F)F)C(F)(F)F)C(C)(C)C1` (stereo unspecified), for which the GI50 with ACHN, with CAKI-1, in the test on CCRF-CEM, in the test on DU-145, in the test on Hs-578T and with K562 was > 10 µM (inactive) in each case. In addition, the GI50 in the test on MDA-N, in the test on Malme-3M, with NCI-H226, in the test on NCI-H522, in the test with OVCAR-8 and in the test with PC-3 was > 10 µM (inactive) each time. Also, the GI50 in the test with SF-295, in the test on SF-539, in the test on SR, with U-251, in the test on UACC-257 and in the test with UACC-62 was > 10 µM (inactive) throughout.
As for `CCOC(=O)c1nc2cc(C(F)(F)F)ccc2nc1Oc1ccc(OC)cc1`, the GI50 in the test on ACHN was > 100 µM (inactive); in the test with CAKI-1, > 100 µM (inactive); with CCRF-CEM, 66.2 µM (inactive); in the test on DU-145, > 100 µM (inactive); in the test on Hs-578T, > 100 µM (inactive); in the test with K562, > 100 µM (inactive). Moreover, the GI50 in the test with MDA-N was > 100 µM (inactive); in the test on Malme-3M it was > 100 µM (inactive); in the test on NCI-H226 it was > 100 µM (inactive); in the test with NCI-H522, 72.4 µM (inactive); in the test with OVCAR-8 it was > 100 µM (inactive); in the test with PC-3, > 100 µM (inactive). In addition, the GI50 in the test on SF-295 was > 100 µM (inactive); in the test with SF-539, > 100 µM (inactive); in the test with SR, 74.6 µM (inactive); in the test on U-251 it was > 100 µM (inactive); in the test with UACC-257 it was > 100 µM (inactive); in the test with UACC-62 it was > 100 µM (inactive). Further, the GI50 in the test with UO-31 was > 100 µM (inactive).
Take `S=C1C(CCCOCc2ccccc2)C2CCCC23CC2(CCN13)OCCS2` (stereo unspecified): the GI50 with ACHN, in the test on CAKI-1, in the test on CCRF-CEM, with DU-145, in the test with Hs-578T and in the test on K562 was > 10 µM (inactive) in each case. Besides, the GI50 in the test on MDA-N, in the test on Malme-3M, in the test with NCI-H226, with NCI-H522, in the test on OVCAR-8 and in the test with PC-3 was > 10 µM (inactive) each time. Also, the GI50 in the test with SF-295, in the test on SF-539, in the test on SR, with U-251, in the test on UACC-257 and in the test with UO-31 was > 10 µM (inactive) each time.
